The results in this text go back to patent publication US12152011B2, “Usnic acid derivative having TSLP secretion inhibitory ability and use thereof” (SEOUL NATIONAL UNIVERSITY HOSPITAL, priority 2018, dated 2024).

The structures appear in SMILES notation.

The subject of one assay is IL-13 gene. Briefly: qRT-PCR of IL-13 gene expression in TNF-a stimulated HaCaT cells. Format: cell-based, human. The following applies: TNF-a stimulation, UA-CA treatment, FIG. 4. On the technique in general: In qPCR the cycle at which signal appears reflects the starting amount.
The test system of the next assay is hypertrophic scar. Briefly: Scar alleviation in rabbit ear hypertrophic scar model (biopsy, H&E histology). Format: in vivo. Here is the method: In order to confirm the efficacy of Usnic acid derivatives in relieving hypertrophic scars, the degree of scar relief by UA-CA treatment in hypertrophic scar samples was confirmed through histological comparison and pathological examination of skin tissue after biopsy.
A total of 4 rabbits weighing 3.5 kg (N2W conventional, female, 30 weeks old) were reared for a week in an environment of 21±1° C. 12-hour light/dark cycle, and the experiment was carried out. After anesthesia by intravenous administration of ketamine (60 mg/kg)+xylazine (5 mg/kg), both ears of the rabbit were sufficiently sterilized with betadine, and 5 wounds each with a diameter of 6 mm were made with a biopsy punch and a neck collar was applied. Management and supervision were made to become a hypertrophic scar model for 2 weeks after wound surgery. After confirming the hypertrophic scar model, the test material was treated twice a week for 2 weeks (untreated hypertrophic scar sample (Control), hypertrophic scar sample treated with 1, 5, and 10 mM UA-CA, 100 Thickening scar samples treated with ug/ml tranilast). After 2 weeks, visual evaluation and biopsy of the wound area were performed, followed by H&E staining, and then the changes in epidermal thickness were compared at 200 times and 400 times under a microscope.

The test system of a further assay is IL-31 gene. Briefly: qRT-PCR of IL-31 gene expression in TNF-a stimulated HaCaT cells. Format: cell-based, human. The following applies: TNF-a stimulation, UA-CA treatment, FIG. 6.
In a further assay the test system is IL-25 gene. Briefly: qRT-PCR of IL-25 gene expression in TNF-a stimulated HaCaT cells. The following applies: TNF-a stimulation, UA-CA treatment, FIG. 5. Format: cell-based, human.
Another assay has as its system TSLP gene. Briefly: qRT-PCR of TSLP gene expression in TNF-a stimulated HaCaT cells. The conditions noted are these: TNF-a stimulation, UA-CA treatment, FIG. 2. Format: cell-based, human.
For a further assay, the system named is IL-1β gene. Briefly: qRT-PCR of IL-1β gene expression in TNF-a stimulated HaCaT cells. The conditions noted are these: TNF-a stimulation, UA-CA treatment, FIG. 3. Format: cell-based, human.

On to `C=C(OC(=O)/C=C/c1ccccc1)C1=C(OC(=O)/C=C/c2ccccc2)C=C2Oc3c(C(C)=O)c(O)c(C)c(O)c3[C@@]2(C)C1=O` [UA-CA], for which the “expression level of the IL-13 gene (mRNA, relative to 36B4)” value with IL-13 gene is “dependently decreased”. Also, the “scar relief compared with positive control tranilast” value in the assay on hypertrophic scar (10 mM UA-CA vs 100 ug/ml tranilast, twice a week for 2 weeks) is “better scar relief efficacy”. For the same compound, the “scar relief compared to the untreated hypertrophic scar” value in the assay with hypertrophic scar (UA-CA 1, 5, 10 mM, twice a week for 2 weeks, FIGS. 7A-7E) was “scar relief was more advanced”. For the same compound, the “thickness of the epidermis compared to the untreated thickening scar” value in the assay with hypertrophic scar (UA-CA-treated sample, H&E staining, FIGS. 8A-8E) is “became thinner”. In addition, in the assay with IL-31 gene, the “expression level of the IL-31 gene (mRNA, relative to 36B4)” value is recorded as “dependently decreased”. Besides, in the assay with IL-25 gene, the “expression level of the IL-25 gene (mRNA, relative to 36B4)” value is recorded as “dependently decreased”. Moreover, the “expression level of the TSLP gene (mRNA, relative to 36B4)” value with TSLP gene is listed as “dependently decreased”. The “expression level of the IL-1β gene (mRNA, relative to 36B4)” value in the assay on IL-1β gene is recorded as “dependently decreased”.
